One test concerns Artemia salina. The test is described as follows: Brine shrimp toxicity (lethality) assay. It is filed as in vivo. The settings on record: 24 h; for survival at 0.1 µM / survival at 1 µM / survival at 10 µM / survival at 30 µM: Artemia salina, read-out: Percentage of Survival of Artemia salina after 24 h. As to the method:
The lethality assay of brine shrimp A. salina was developed by Vanhaecke et al.. […] Commercially available A. salina or brine shrimp cysts were purchased and cultivated in 3.2% of saline water. Before cultivation, the saline was aerated, and then cysts were kept at room temperature for 24 h. For toxicity screening, hatched larvae were collected and introduced in saline water. Add 0.9% saline water and approximately the same number of larvae 30 per well to make a 96-wells test culture plate. ATXs with 0.1 μM, 1 μM, 10 μM, 30 μM were added to the test culture plate, while the equal volume of dimethyl sulfoxide (DMSO) (Aladdin, Shanghai, China) and dichloromethane (Aladdin, Shanghai, China) were added as blank control test and positive control separately. After 24 h at 25 °C, the percent of survival of A. salina was calculated (Supplementary Materials 1.3.2).
Figure S1.3.1.2. […]
Figure S1.3.1.3. […]
1.3.2. Brine Shrimp Cytotoxicity Assay
Commercially available Artemia salina (A. salina) or brine shrimp cysts were purchased and cultivated in 3.2% of saline water. Before cultivation, the saline was aerated, and then cysts were kept at room temperature for 24 h. For toxicity screenin g, hatched larvae were collected and introduced in saline water. Add saline water and equivalent larvae in per well of 96 wells to make test culture plate.
Aplysiatoxins with 0.1 μM, 1 μM, 10 μM, 30 μM was added to test culture plate, while DMSO and dichloromethane were added as blank control test and positive control separately. After 24 h in 25 °C, the percent of survival of A. salina was calculated. […]

Test [1] deals with T1, potassium channel Kv1.5 (Homo sapiens, UniProt P22460).
T1 construct: expressed in transfected cells; host or cells: Chinese hamster ovary (CHO) cells
Put plainly: Kv1.5 ion channel inhibitory experiment (whole-cell patch clamp, CHO cells). Type of test: cell-based. As to the method: Cell preparation: the day before the experiment, digestion of Chinese hamster ovary (CHO) cells (Sigma Chemical Co., St. Louis, MO, USA) with a density of 60–80% by trypsin, and split into some small glass plates, which placed in 35 mm petri dish, then added 10% fetal bovine serum (FBS) (Gibco, CA, USA), and Dulbecco’s modified eagle medium (DMEM) (HyClone, Logan, UT, USA) culture medium without P/S was cultured overnight in an incubator [35, 36, 37] (Supplementary Materials 1.3.1).
Electrophysiology: the cells were transferred to a perfusion tank and perfused with extracellular fluid. The intracellular fluid (mM) was: K Aspartate, 130; MgCl2, 5; EGTA 5; HEPES, 10; Tris-ATP 4; pH 7.2 (KOH titration). The intracellular fluid was stored in small portions in a refrigerator at −80 °C and thawed on the day of the experiment. The electrodes were filled with intracellular fluid and drawn with PC-10 (Narishige, Japan). Whole-cell patch-clamp recording, noise is filtered using one-fifth of the sampling frequency. The cells were clamped at −80 mV and then depolarized to 20 mV with a square wave lasting 2 s to obtain Kv1.5 current. This procedure is repeated every 20 s. After it was stabilized, compound 1, compound 2, and acacetin were perfused, and when the reaction was stabilized, the strength of the blocking was calculated (Supplementary Materials 1.3.1). […]
detection at 190 nm) to afford twenty‐one subfractions (F.D.1‐21). […]
Electrophysiology. […] After it was stabilized, compound 1, compound 2, and acacetin were perfused, and when the reaction was stabilized, the strength of the blocking was calculated.
Data analysis and statistics. […] The IC50 value was determined by fitting the data points to the equation. […]
Figure S1.3.1.1. (A) Kv1.5 traces elicited by 5 s pulses from −80 to + 20 mV and tail currents recorded at −80 mV in the absence and presence of 0.1 μM, 0.3 μM, 1 μM, 3 μM, 10 μM, and 30 μM neo‐ […]
(In patch-clamp work, channel activity is measured electrically.)

Test [2] addresses T1, potassium channel Kv1.5. The settings on record: read-out: IC50, inhibitory activity against Kv1.5, cited from earlier work.
The subject of the next test is protein kinase C (PKC). The note with it: ref [20],[21],[34]; cited from earlier work.

Read-outs that look alike come from different tables or passages of the source.

T1 sequence (P22460 whole entry): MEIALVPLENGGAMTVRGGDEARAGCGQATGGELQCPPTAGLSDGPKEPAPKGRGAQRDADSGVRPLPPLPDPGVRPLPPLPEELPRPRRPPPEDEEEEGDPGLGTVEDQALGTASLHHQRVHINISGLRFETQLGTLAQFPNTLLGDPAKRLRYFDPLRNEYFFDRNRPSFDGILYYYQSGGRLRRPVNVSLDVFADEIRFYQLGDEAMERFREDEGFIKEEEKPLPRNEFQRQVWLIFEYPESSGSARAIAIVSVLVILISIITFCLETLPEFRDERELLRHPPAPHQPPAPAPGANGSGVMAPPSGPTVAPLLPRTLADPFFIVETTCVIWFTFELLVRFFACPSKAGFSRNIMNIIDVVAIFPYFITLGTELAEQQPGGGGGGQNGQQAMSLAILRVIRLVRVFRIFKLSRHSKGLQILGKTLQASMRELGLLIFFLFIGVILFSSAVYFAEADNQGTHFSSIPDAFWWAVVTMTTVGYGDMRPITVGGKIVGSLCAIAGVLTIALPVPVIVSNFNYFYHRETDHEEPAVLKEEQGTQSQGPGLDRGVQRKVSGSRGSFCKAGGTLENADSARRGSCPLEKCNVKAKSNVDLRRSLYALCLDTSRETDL

`COC(CCC(C)C1OC23CC(OC(=O)CC(C(C)O)OC(=O)CC(OC)(O2)C(C)CC3(C)C)C1C)c1cccc(O)c1` (centres unmarked) [3-OCH3 DAT, 3-methoxydebromoaplysaitoxin]: in the test with Artemia salina, the “concentration at which survival of A. salina began to be influenced” value (“concentration at which survival” below) was 10 µM, the survival at 0.1 µM worked out at 94.5 ± 1.87%, the survival at 1 µM amounted to 85.8 ± 6.3% and the survival at 10 µM came out at 0%. In the test on Artemia salina, the survival at 30 µM came out at 0%.

As to `COC(CCC(C)C1OC(=O)C(C)(C)CC(C)=C(CC(=O)OC2CC(=O)OC2C)C(=O)CC1C)c1cccc(O)c1` (centres unmarked) [NEO-C, neo-debromoaplysiatoxin C], in the test on Artemia salina, the survival at 0.1 µM was found to be 98.7 ± 2.31%, the survival at 1 µM was 99 ± 1.65%, the survival at 10 µM was 98.9 ± 1.92% and the survival at 30 µM came out at 94.9 ± 5.27%.

As a reminder, the IC50 is the concentration at which inhibition is half-maximal. Consider `COc1ccc(-c2cc(=O)c3c(O)cc(O)cc3o2)cc1` [acacetin], for which, at potassium channel Kv1.5 [1] (Kv1.5 expression in CHO cells, holding potential −80 mV, mean ± SEM of 3 to 5 measurements, Hill fit, read-out: IC50, inhibitory effect on Kv1.5 current), the IC50 stood at 5960 ± 560 nM.

On to `CO[C@@H](CC[C@H](C)[C@H]1O[C@@]23C[C@H](OC(=O)C2=C(O)[C@H](C)CC3(C)C)[C@@H]1C)c1cccc(O)c1` [NEO-B, neo-debromoaplysiatoxin B], for which, on potassium channel Kv1.5 [2] (ref [20],[21],[33]), the IC50 is 300 ± 50 nM.

Consider oscillatoxin E [OAT E], for which the IC50 on potassium channel Kv1.5 [2] (ref [33]) was 790 ± 30 nM.

With `COC(CCC(C)C1OC2(C=CC1C)OC(C)(C(=O)CC(=O)OC1CC(=O)OC1C)CC2(C)C)c1cccc(O)c1` (centres unmarked) [Compound 2, neo-debromoaplysiatoxin H], the “effect on survival of A. salina (in words)” value (shortened to “effect on survival”) in the test with Artemia salina (30 µM) is reported as “no apparent effect”. Also, in the test with Artemia salina, the survival at 0.1 µM was 97.3 ± 2.38%, the survival at 1 µM was 98.9 ± 1.93%, the survival at 10 µM came to 97.3 ± 4.62% and the survival at 30 µM worked out at 95.5 ± 1.93%. Further, 1460 ± 140 nM corresponded to half-maximal inhibition against potassium channel Kv1.5 [1] (IC50).

`COC(CCC(C)C1OC2(C=CC1C)CC(=O)C(C)CC2(C)C)c1cccc(O)c1` (centres unmarked) [OAT F, osciliatoxin F]: the “effect on survival” value in the test with Artemia salina (30 µM) is on record as “no apparent effect”. Besides, in the test on Artemia salina, the survival at 0.1 µM turned out to be 97.5 ± 2.2%, the survival at 1 µM came to 98.8 ± 1.99%, the survival at 10 µM was 95.3 ± 1.92% and the survival at 30 µM is 85.5 ± 2.91%.

With `COC(CCC(C)C1OC23CC(OC(=O)CC(C(C)O)OC(=O)CC4(CC2(C)CC4(C)O)O3)C1C)c1cccc(O)c1` (centres unmarked) [Compound 1, neo-debromoaplysiatoxin G], the “effect on survival” value in the test on Artemia salina (30 µM) is “no apparent effect”. In addition, in the test on Artemia salina, the survival at 0.1 µM came to 98 ± 3.4%, the survival at 1 µM came to 92.6 ± 1.54%, the survival at 10 µM came out at 92.4 ± 4.71% and the survival at 30 µM was 91.8 ± 7.73%. Half-maximal inhibition against potassium channel Kv1.5 [1] (IC50) was put at 1790 ± 220 nM.

For the compound `COC(CCC(C)C1OC23CC(OC(=O)CC(C(C)O)OC(=O)CC(=C(C)CC2(C)C)O3)C1C)c1cccc(O)c1` (centres unmarked) [Anhydro DAT, anhydrodebromoaplysiatoxin], in the test on Artemia salina, the “concentration at which survival” value was found to be 10 µM, the survival at 0.1 µM was found to be 94 ± 3.46%, the survival at 1 µM came to 91.3 ± 6.94% and the survival at 10 µM came to 0%. Further, the survival at 30 µM in the test on Artemia salina amounted to 0%.

Consider `CO[C@@H](CC[C@H](C)[C@H]1O[C@@]23C[C@H](OC(=O)C[C@H]([C@@H](C)O)OC(=O)C[C@](O)(O2)[C@H](C)CC3(C)C)[C@@H]1C)c1cccc(O)c1` [DAT, debromoaplysiatoxin], for which the IC50 at potassium channel Kv1.5 [2] (ref [33]) was 1280 ± 80 nM. Moreover, in the test with Artemia salina, the “concentration at which survival” value is 0.1 µM. In the test on Artemia salina (0.1 µM), the survival at 0.1 µM was determined as 70.9 ± 6.3%. Further, the survival at 1 µM in the test with Artemia salina (1 µM) stood at 0%. Further, the survival at 10 µM with Artemia salina (10 µM) amounted to 0%. Further, the survival at 30 µM with Artemia salina (30 µM) turned out to be 0%. In the test with protein kinase C (PKC), the “PKC activation (in words)” value is “strong PKC activation”.

(Values after article PMC7700248, “Chemical and Biological Study of Novel Aplysiatoxin Derivatives from the Marine Cyanobacterium Lyngbya sp” (Toxins, 2020).)
